Results published in patent US8907103B2, “Glucagon antagonists” (Metabasis Therapeutics, Inc., priority 2008, dated 2014).

Experiments:
[1] = Oral bioavailability in the rat; format: in vivo
db/db mouse = assay: Glucose lowering in db/db mice; format: in vivo; settings: oral gavage, freely-feeding db/db mice, 100% = normalization to lean db/+, read-out: % Glu lowering in db/db mouse @ 30 mg/kg
Method: To assess the effects of compounds provided herein on blood glucose levels in the db/db mouse, an animal model of type 2 diabetes, compounds are dissolved in polyethylene glycol-400 and administered by oral gavage to db/db mice in the freely-feeding state at doses of 30 and/or 100 mg/kg. Blood glucose levels are assessed in blood samples obtained by tail bleed at baseline (prior to drug administration) and at regular time intervals over 24 hrs using a portable glucometer such as the OneTouch or HemoCue meters. The magnitude of blood glucose lowering elicited by the compounds provided herein is determined by comparison to those in db/db mice administered only the vehicle. The percentage glucose lowering is calculated by factoring in the blood glucose levels of vehicle-treated lean db/+ (heterozygote) mice, with 100% representing the normalization of blood glucose levels from the hyperglycemic state (vehicle-treated db/db mice) to the normoglycemic state (vehicle-treated db/+ mice).

human hepatocytes = assay: Functional antagonism of glucagon-stimulated glucose production in hepatocytes; format: cell-based; settings: human hepatocyte assay, 1 nM glucagon; read-out: Hu Hepatocyte EC50
Method: Primary human, monkey, dog, rat, or mouse hepatocytes are seeded onto collagen-coated 24-well plates in Williams E medium (supplemented with 10% fetal bovine serum) and incubated at 37° C. overnight in M199 medium (supplemented with 15 mM glucose and 10 nM human insulin). The following day cells are washed twice with a glucose-free Kreb-bicarbonate buffer, pH 7.4, containing 0.1% BSA. Cells are then incubated at 37° C. with the aforementioned buffer containing 1 nM glucagon and varying concentrations of a glucagon antagonist (0-100 microM). Control wells without glucagon or antagonist are also included. After 1 hour, an aliquot of the medium is removed and analyzed for glucose content by means of the glucose oxidase method. The background glucose levels observed in the control wells are subtracted from the glucagon and antagonist containing wells. A graph of % glucose concentration vs drug concentration is plotted and an EC50 value for inhibition of glucose production generated using Sigmaplot software (SAS, Cary, N.C.). Alternatively, intracellular cAMP levels are measured using standard kits and EC50 values determined by plotting these levels against drug concentration. Antagonists of the glucagon receptor inhibit glucagon-induced cAMP production.

human glucagon receptor = target: T1, human glucagon receptor (Homo sapiens, UniProt P47871); assay: Human glucagon receptor affinity ([125I]glucagon displacement, membrane preparation); format: binding; settings: human glucagon receptor binding assay; stereo column says racemic or R-isomer; read-out: Hu IC50
T1 construct: host or cells: human liver samples or a recombinant cell line (alternatives)
T1 sequence (P47871 26-477): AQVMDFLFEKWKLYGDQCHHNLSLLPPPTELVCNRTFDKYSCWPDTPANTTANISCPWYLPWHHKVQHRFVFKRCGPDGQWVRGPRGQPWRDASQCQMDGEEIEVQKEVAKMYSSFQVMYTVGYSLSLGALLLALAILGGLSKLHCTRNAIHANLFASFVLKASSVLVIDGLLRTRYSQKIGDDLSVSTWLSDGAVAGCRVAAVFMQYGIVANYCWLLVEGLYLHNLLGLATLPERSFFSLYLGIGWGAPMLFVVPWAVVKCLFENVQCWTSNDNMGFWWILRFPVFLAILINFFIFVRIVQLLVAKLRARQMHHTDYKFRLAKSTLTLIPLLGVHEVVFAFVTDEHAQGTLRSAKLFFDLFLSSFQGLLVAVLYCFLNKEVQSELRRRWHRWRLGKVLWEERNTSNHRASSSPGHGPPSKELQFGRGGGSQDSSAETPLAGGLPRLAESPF
Method: Compounds provided herein are dissolved in a suitable solvent (e.g., dimethlysulfoxide) at a concentration of 10 mM and then diluted in buffer (e.g., 50 mM Hepes, pH 7.4, 5 mM MgCl2, 1 mM CaCl2, and 0.2% BSA) to concentrations ranging from 1 nM to 100 μM. Compounds (20 μL/well) and [^125I]glucagon at the final concentration of 0.125 nM (20 μl/well) (Perkin Elmer) are added to and mixed in wells of a 96-well plate (Costar, Corning) containing 120 μL of buffer. Next, an appropriate aliquot of a membrane preparation containing the human glucagon receptor (isolated from human liver samples or obtained from a recombinant cell line) is added to the wells. The binding mixtures are incubated for 2 hrs at room temperature. In the meantime, a MultiScreen 96-well filter plate (Millipore) is treated with 200 μL of the buffer, which is vacuumed through the filter just before the binding mixtures are transferred to the plate. At the end of incubation, binding mixtures are transferred to the wells of the MultiScreen 96-well filter plate and filtered through by applying vacuum. The plate is washed once with 200 μL per well of the buffer, and the filters are dried and counted using a gamma counter.

SMILES	OBAV in rat [1] [%]	IC50 (human glucagon receptor) [nM]	inhibition in vivo at 30 mg/kg (db/db mouse) [%]	EC50 (human hepatocytes) [nM]
Cc1cc(Cl)ccc1-c1ccc(NC(=O)[C@H](Cc2ccc(C(=O)NCCS(=O)(=O)O)cc2)c2cccc(C3CCC(C)(C)CC3)c2)cc1	52	10	45	12
Cc1cc(Cl)ccc1-c1ccc(NC(=O)[C@H](Cc2ccc(C(=O)NCCS(=O)(=O)O)cc2)c2ccc([C@H]3CC[C@@H](C(C)(C)C)CC3)cc2)cc1	54	9	53	3
Cc1cc(-c2ccc(NC(=O)[C@H](Cc3ccc(C(=O)NCCS(=O)(=O)O)cc3)c3ccc(-c4ccc(C(C)(C)C)cc4)cc3)cc2)ccc1Cl	62	6	33	31
Cc1cc(Cl)ccc1-c1ccc(NC(=O)C(Cc2ccc(C(=O)NCCS(=O)(=O)O)cc2)c2ccc(C3CCC(C(C)(C)C)CC3)cc2)cc1 (racemic)		12	58	41
Cc1cccc2oc(-c3ccc(NC(=O)C(Cc4ccc(C(=O)NCCS(=O)(=O)O)cc4)c4ccc(C=CC(C)(C)C)cc4)cc3)nc12 (racemic)		13	39	62
Cc1cc(Cl)ccc1-c1ccc(NC(=O)C(Cc2ccc(C(=O)NCCS(=O)(=O)O)cc2)c2cccc(C3=CCC(C)(C)CC3)c2)cc1 (racemic)	38	9	56	26
CC1(C)CC=C(c2cccc(C(Cc3ccc(C(=O)NCCS(=O)(=O)O)cc3)C(=O)Nc3ccc(-c4ccc(Cl)cc4Cl)cc3)c2)CC1 (racemic)		15	28	30
CC(C)(C)C1CCC(c2ccc(C(Cc3ccc(C(=O)NCCS(=O)(=O)O)cc3)C(=O)Nc3ccc(-c4ccc(Cl)cc4Cl)cc3)cc2)CC1 (racemic) [drawing 106]		16	25	

The next lines start with results.

OBAV in rat [1] [%]	IC50 (human glucagon receptor) [nM]	SMILES	inhibition in vivo at 30 mg/kg (db/db mouse) [%]	EC50 (human hepatocytes) [nM]
73	5	Cc1cc(C)c(-c2ccc(NC(=O)[C@H](Cc3ccc(C(=O)NCCS(=O)(=O)O)cc3)c3ccc(-c4ccc(C(C)(C)C)cc4)cc3)cc2)c(C)c1	57	4
69	8	CC1(C)CC=C(c2ccc(NC(=O)[C@H](Cc3ccc(C(=O)NCCS(=O)(=O)O)cc3)c3ccc(-c4ccc(C(C)(C)C)cc4)cc3)cc2)CC1	29	36
	10	Cc1ccccc1-c1ccc(NC(=O)C(Cc2ccc(C(=O)NCCS(=O)(=O)O)cc2)c2ccc(-c3ccc(C(C)(C)C)cc3)cc2)cc1 (racemic)	45	194
	11	Cc1cc(C(F)(F)F)ccc1-c1ccc(NC(=O)C(Cc2ccc(C(=O)NCCS(=O)(=O)O)cc2)c2ccc(C3=CCC(C)(C)CC3)cc2)cc1 (racemic)	20	30
48	17	Cc1cc(Cl)ccc1-c1ccc(NC(=O)C(Cc2ccc(C(=O)NCCS(=O)(=O)O)cc2)c2ccc(C3=CCC(C)(C)CC3)cc2)cc1 (racemic)	42	49
	17	CC(C)(C)c1ccc(-c2ccc(C(Cc3ccc(C(=O)NCCS(=O)(=O)O)cc3)C(=O)Nc3ccc(C4=CCCC4)cc3)cc2)cc1 (racemic)	30	65
